Measurements published in patent US8785416B2, “Sulphated disaccharides for the treatment of neurodegenerative and/or neurovascular diseases” (Bioiberica, S.A., priority 2009, dated 2014).

What was measured:
[1] = tested on: SH-SY5Y human neuroblastoma cell line; test: Cell toxicity study, LDH release, SH-SY5Y cells incubated 48 hours; assay type: cell-based; details: 100 μM, 48 hours incubation
Procedure: The cell toxicity studies were performed on the SH-SY5Y human neuroblastoma cell line, incubating said cells for 48 hours with the compound under study. The cell viability was assessed by quantifying the release of lactate dehydrogenase (LDH), which is a cytoplasmic enzyme which is released into the extracellular medium when the integrity of the cytoplasmic membrane is lost.

rat hippocampal slices = test: Oxygen and glucose deprivation (15 minutes OGD, 2 hours reoxygenation) in hippocampal slices, MTT cell viability; assay type: cell-based
Procedure: Male Spague Dawley strain rats (250-325 g) were used. After anaesthesia by means of an intraperitoneal injection of 60 mg/Kg sodium pentobarbital (Euta-Lender®), they were decapitated with a guillotine and the brain was extracted after a craniotomy. The brain was immediately submersed in a dissection solution, a cold (4° C.) modified Krebs-Henseleit solution at pH 7.4, the composition of which is: 120 mM NaCl, 2 mM KCl, 0.5 mM CaCl2, 26 mM NaHCO3, 10 mM MgSO4, 1.18 mM KH2PO4, 11 mM glucose and 200 mM sucrose, bubbled with 95% O2-5% CO2. The hippocampi were isolated, embedded in 2% low melting point agarose (Sigma-Aldrich), and cut into 350 μm transverse slices in a vibratome (Leica VT1000S).
After the cutting in the vibratome, the slices were transferred to a vial with sucrose-free dissection Krebs solution, bubbled with 95% O2-5% CO2 for 60 minutes (equilibrium period).
After the equilibrating period, the medium was removed and an oxygenated solution (normal Krebs solution (120 mM NaCl, 2 mM KCl, 2 mM CaCl2, 26 mM NaHCO3, 1.19 mM MgSO4, 1.18 mM KH2PO4 and 11 mM glucose), bubbled with 5% CO2 and 95% O2 for 30 minutes (preincubation period), was introduced. The baseline slices were maintained in this oxygenated solution throughout the entire experiment. To induce OGD, the oxygenated solution was replaced with another one which lacked glucose and was bubbled with a mixture of gases of 5% CO2 and 95% N2 (anoxic solution). The slices were in a bath at 37° C. After inducing OGD, the anoxic medium was replaced with another one which contained the oxygenated solution (reoxygenation period).
To evaluate the effect of the compounds, they were incubated for the 30 minutes of the preincubation and throughout the OGD and during the reoxygenation. Two OGD-reoxygenation protocols were used: (i) 1 hour of OGD and 2 hours of reoxygenation and (ii) 15 minutes of OGD followed by 2 hours of reoxygenation.
When the OGD-reoxygenation protocol (ii): 15 minutes of OGD followed by 2 hours of reoxygenation was used, the slices were incubated with increasing concentrations of compound Ic (0.3 and 1 μM) or with increasing concentrations of compound Ib (1 and 3 μM). In the same study these two compounds of the invention were compared with N-acetylcysteine (NAC) at 10 mM. The baseline (slices in the absence of compound Ic or Ib and of OGD) and the control (slices in the absence of compound Ic or Ib and with OGD) were also included.
For the protocol of 15 minutes of OGD followed by 2 hours of reoxygenation, the cell viability was evaluated by means of the tetrazolium salt MTT, which is internalized in those cells which are viable and are therefore capable of reducing the tetrazolium to formazan which is an insoluble and coloured product which is deposited in the […]. To that end, after the experiment had ended, the hippocampal slices were incubated with MTT at a final concentration of 0.5 mg/mL in a Krebs-HEPES solution (in mM: NaCl, 144; KCl, 5.9; MgCl2, 1.2; CaCl2, 2; HEPES, 10; glucose, 11; at pH 7.3) at 37° C. After 3 hours, the medium was removed and the formazan precipitated in the solution was dissolved in dimethylsulfoxide. Then, the absorbance was measured in a plate reader (Labsystems iEMS Reader MF), at 500 nm. The data were represented taking the result of the baseline slices, i.e., those not subjected to OGD, as 100% viability.

[2] = tested on: mice (photothrombotic stroke model); test: Experimental photothrombotic stroke model, cortical infarction volume; assay type: in vivo, mouse; details: 10 mg/kg i.p.
Excerpt: Neuronal death occurs during brain ischemia or stroke; therefore a medicament with a neuroprotective profile can have a therapeutic potential in patients who have suffered from a cerebral infarction or stroke. To explore if the compounds of formula (I) can offer neuroprotection in vivo, the experimental photothrombotic stroke model was used. In the photothrombosis model a focal cerebral infarction is induced in the area of the cortex illuminated by means of a cold light source in mice previously treated with the Rose Bengal stain; this stain is photosensitive and produces free radicals when it is stimulated with light, causing lesions in the surrounding vascular endothelium, which causes platelet aggregation and the formation of thrombi in the microvessels of the cerebral cortex (Non-invasive induction of focal cerebral ischemia in mice by photothrombosis of cortical microvessels: characterization of inflammatory responses, M. Schroeter et al., J Neurosci Methods. 117(1), 43-49. (2002); Melatonin reduces infarction volume in a photothrombotic stroke model in the wild-type but not cyclooxygenase-1-gene knockout mice, L Y. Zhou et al., J Pineal Res. 41(2), 150-156. (2006)).
Adult male Swiss breed mice from Harlan laboratories (Barcelona), with a weight of about 30 g, were used. Once anaesthetised with isoflurane, the mice were placed in a stereotaxic frame, maintaining their rectal temperature at 37±0.5° C. during the entire procedure. Subsequently, the cranium was exposed by means of a dorsomedial incision in the skin and the periosteum was removed. By means of the use of a micromanipulator, a fibre-optic cable was placed to emit a beam of light of 1.9 mm in diameter and 3000° K, connected to a cold light source (Zeiss KL 1500), in 2.0 mm posterior and 3.0 mm lateral to Bregma on the right side. According to the mouse brain atlas (Franklin and Paxinos, 1986), the sensitive-motor cortex, the putamen caudate and the hippocampus are right below this stereotaxic position. Then, the mice were injected with 1 mg of the Rose Bengal photosensitive probe and the brain was illuminated through the intact cranium for 30 minutes. Finally, the skin was sutured and the animals were left in a cage until their recovery under observation.
The animals were sacrificed by decapitation 72 hours after the ischemia. […]
To quantify the cortical cerebral infarction volume, the sections stained with TTC were scanned on both their rostral and caudal part and by means of the image analysis programme ImageJ 1.41 (National Institutes of Health, Bethesda, Md., USA) the area of the ipsi-, contralateral cortex and the cerebral infarction of each of the sections scanned, both in the caudal and rostral part, was quantified. Subsequently, the cerebral infarction volume was calculated. […]

**Q.** What does the source list for “methyl 2-acetamido-2-deoxy-3-O-(β-D-glucopyranosyluronic acid)-4,6-di-O-sulpho-α-D-glucopyranoside, trisodium salt [compound Ic]”?
**A.** cell toxicity (release of LDH) [1]: did not show toxicity; maximum statistically significant protection (cell viability, MTT) (rat hippocampal slices; 1 μM, 15 minutes OGD, 2 hours reoxygenation, baseline 100%, control 67%): 93%; efficacy in comparison with N-acetylcysteine (rat hippocampal slices; Ic 0.3 and 1 μM, Ib 1 and 3 μM vs N-acetylcysteine 10 mM): higher efficacy; cortical infarction volume ([2]; 24 h and 1 h before ischemia and twice a day after, 72 hours, saline 6.1±2.18%, mean and standard deviation): 2.8±1.95%; protection (reduction of cortical infarction volume) ([2]; p<0.001 vs saline): 53%
